Measured values: PubChem BioAssay AID651850 (Broad Institute, 2012)
Calls of active or inactive are those of the source. How the calls were made is not given here.

Tests used:
[1] = M. tuberculosis log-phase growth inhibition, dose response, dry powder samples (AID 651850); details: M. tuberculosis log-phase growth, CFU enumeration
[2] = test system: M. tuberculosis log-phase growth, CFU enumeration; assay: as above

| Compound | outcome [1] | IC90 [2] |
| --- | --- | --- |
| Fc1ccc(Cn2cc(CSc3nnc(C4CCC4)o3)nn2)cc1 | inactive |  |
| Fc1ccc(-c2nnc(SCc3ccccn3)o2)cc1 |  | 16 µM |
| Fc1ccc(Cn2cc(CSc3nnc(-c4ccc(F)cc4)o3)nn2)cc1 | inactive |  |
| Fc1ccc(Cn2cc(CSc3nnc(-c4ccc(Cl)cc4)o3)nn2)cc1 | inactive |  |
| Fc1ccc(-c2nnc(SCc3cn(-c4ccccc4)nn3)o2)cc1 | inactive |  |
| Brc1ccc(-c2nnc(SCc3ccccn3)o2)cc1 |  | 62 µM |
| c1ccc(CSc2nnc(-c3ccccc3)o2)cc1 |  | 62 µM |
| O=S(Cc1cn(Cc2ccccc2)nn1)c1nnc(-c2ccc(Cl)cc2)o1 (stereo not drawn) |  | 62 µM |
| Fc1ccc(Cn2cc(CSc3nnc(C4CCCC4)o3)nn2)cc1 | inactive |  |
| c1ccc(-c2nnc(SCCN3CCN(c4ccccc4)CC3)o2)cc1 |  | 62 µM |
| Clc1ccc(-c2nnc(SCc3cn(Cc4ccccc4)nn3)o2)cc1 | inactive | 125 µM |
| Clc1ccc(-c2nnc(SCc3cn(-c4ccccc4)nn3)o2)cc1 | inactive |  |
| Fc1ccc(-c2nnc(SCc3cn(Cc4ccccc4)nn3)o2)cc1 |  | 62 µM |
| c1ccc(-n2cc(CSc3nnc(C4CCC4)o3)nn2)cc1 |  | 62 µM |
| COc1cccc(-c2nnc(SCc3ccccn3)o2)c1 |  | 62 µM |
| c1ccc(Cn2cc(CSc3nnc(C4CCC4)o3)nn2)cc1 | inactive |  |
| c1ccc(-n2cc(CSc3nnc(C4CCCC4)o3)nn2)cc1 |  | 62 µM |
| O=S(Cc1ccccc1)c1nnc(-c2ccccc2)o1 (stereo not drawn) |  | < 31 µM |
| c1ccc(Cn2cc(CSc3nnc(-c4ccccc4)o3)nn2)cc1 | inactive |  |
| Brc1cccc(-c2nnc(SCc3ccccn3)o2)c1 |  | 62 µM |
| Fc1cccc(-c2nnc(SCc3ccccn3)o2)c1 |  | 31 µM |
| COc1ccc(CSc2nnc(-c3ccc(Cl)cc3)o2)nc1 |  | 16 µM |
| CC(C)c1nnc(SCc2ccccc2)o1 |  | 125 µM |
| c1ccc(Cn2cc(CSc3nnc(C4CCCC4)o3)nn2)cc1 |  | 62 µM |
| c1ccc(CSc2nnc(C3CCCC3)o2)cc1 |  | 250 µM |
| c1ccc(-c2nnc(SCc3ccccn3)o2)cc1 |  | < 31 µM |
| c1ccc(-c2nnc(SCc3cscn3)o2)cc1 |  | 62 µM |
